# Results from patent publication US20070128217A1 (priority 2003, published 2007).
# Assays:
# [1] = test system: antibodies in sera from SARS patients (sera 1a, 1b, 2, 6, 37, 62, London, SARS-yellow, SARS-green); assay type: binding, human; parameters: Binding of serum 6 to linear peptides of protein X1 of SARS-CoV Urbani / Binding of serum 37 to linear peptides of protein X1 of SARS-CoV Urbani / Binding of serum 6 to looped/cyclic peptide (PEPSCAN-ELISA) / Binding of serum 37 to looped/cyclic peptide (PEPSCAN-ELISA) / Binding of serum 37 to looped/cyclic peptides of protein X1 of SARS-CoV Urbani / Binding of serum 6 to linear peptides of protein X2 / Binding of serum 37 to linear peptides of protein X2 / Binding of serum 37 to looped/cyclic peptides of protein X2 of SARS-CoV Urbani / Binding of serum 6 to linear peptides of protein M of SARS-CoV Urbani / Binding of serum 37 to linear peptides of protein M of SARS-CoV Urbani / Binding of serum 6 to looped/cyclic peptides of protein M of SARS-CoV Urbani / Binding of serum 37 to looped/cyclic peptides of protein M of SARS-CoV Urbani / Binding of serum 6 to linear peptides of protein X3 of SARS-CoV Urbani / Binding of serum 37 to linear peptides of protein X3 of SARS-CoV Urbani / Binding of serum 37 to looped/cyclic peptides of protein X3 of SARS-CoV Urbani / Binding of serum 6 to linear peptides of protein X4 of SARS-CoV Urbani / Binding of serum 37 to linear peptides of protein X4 of SARS-CoV Urbani / Binding of serum 37 to looped/cyclic peptides of protein X4 of SARS-CoV Urbani / Binding of serum 6 to linear peptides of protein X5 of SARS-CoV Urbani / Binding of serum 37 to linear peptides of protein X5 of SARS-CoV Urbani / Binding of serum 37 to looped/cyclic peptides of protein X5 of SARS-CoV Urbani / Binding of serum 6 to linear peptides of protein N of SARS-CoV Urbani / Binding of serum 37 to linear peptides of protein N of SARS-CoV Urbani / Binding of serum 6 to linear peptide (PEPSCAN-ELISA) / Binding of serum 1a to looped/cyclic peptides of protein N of SARS-CoV Urbani / Binding of serum 1b to looped/cyclic peptides of protein N of SARS-CoV Urbani / Binding of serum 2 to looped/cyclic peptides of protein N of SARS-CoV Urbani / Binding of serum 6 to looped/cyclic peptides of protein N of SARS-CoV Urbani / Binding of serum 37 to looped/cyclic peptides of protein N of SARS-CoV Urbani / Binding of serum 62 to looped/cyclic peptides of protein N of SARS-CoV Urbani / Binding of serum London to looped/cyclic peptides of protein N of SARS-CoV Urbani / Binding of serum SARS-green to looped/cyclic peptides of protein N of SARS-CoV Urbani: unit not given here
# [2] = test system: control sera (pooled serum of ten healthy LUMC hospital workers; commercial negative donor pooled serum from the Dutch bloodbank); assay type: binding, human; parameters: Binding of Control serum LUMC to linear peptides / Binding of Control serum Blood-bank to linear peptides / Binding of Control serum LUMC to looped peptides / Binding of Control Serum Blood-Bank to Looped peptides / Binding of Control serum LUMC to linear peptides of the protein M of SARS-CoV Urbani / Binding of Control serum Blood-bank to linear peptides of the protein M of SARS-CoV Urbani / Binding of Control serum LUMC to looped peptides of the protein M of SARS-CoV Urbani / Binding of Control Serum Blood-Bank to Looped peptides of the protein M of SARS-CoV Urbani: unit not given here
# [3] = test system: rabbit serum obtained by immunizing a rabbit with the SARS-CoV strain Frankfurt 1; assay type: binding; parameters: Binding of a rabbit serum to linear peptides / Binding of a rabbit serum to looped peptides / Rabbit serum linear peptides / Rabbit serum looped peptides / Binding of a rabbit serum to linear peptides of protein N of SARS-CoV Urbani (Rabbit serum linear peptides) / Binding of a rabbit serum to looped/cyclic peptides of protein N of SARS-CoV Urbani (Rabbit serum looped peptides): unit not given here
sequence,measurement,setting,value
LLFVTIYSHLLLVAA,Binding of serum 1a to linear peptides of protein X1 of SARS-CoV Urbani,[1],0.7
same,Binding of serum 1a to looped/cyclic peptide (PEPSCAN-ELISA),[1],0.4
same,Binding of serum 1b to linear peptides of protein X1 of SARS-CoV Urbani,[1],0.2
same,Binding of serum 1b to looped/cyclic peptide (PEPSCAN-ELISA),[1],0.3
same,Binding of serum 2 to linear peptides of protein X1 of SARS-CoV Urbani,[1],0.5
same,Binding of serum 2 to looped/cyclic peptide (PEPSCAN-ELISA),[1],0.3
same,Binding of serum 6 to linear peptides of protein X1 of SARS-CoV Urbani,[1],0.4
same,Binding of serum 6 to looped/cyclic peptide (PEPSCAN-ELISA),[1],0.2
same,Binding of serum 37 to linear peptides of protein X1 of SARS-CoV Urbani,[1],0.6
same,Binding of serum 37 to looped/cyclic peptide (PEPSCAN-ELISA),[1],0.4
same,Binding of serum 62 to linear peptides of protein X1 of SARS-CoV Urbani,[1],0.5
same,Binding of serum 62 to looped/cyclic peptide (PEPSCAN-ELISA),[1],0.5
same,Binding of serum London to linear peptides of protein X1 of SARS-CoV Urbani,[1],0.2
same,Binding of serum London to looped/cyclic peptide (PEPSCAN-ELISA),[1],0.2
same,Binding of serum SARS-green to linear peptides of protein X1 of SARS-CoV Urbani,[1],0.3
same,Binding of serum SARS-green to looped/cyclic peptide (PEPSCAN-ELISA),[1],0.2
same,Binding of serum SARS-yellow to linear peptides of protein X1 of SARS-CoV Urbani,[1],0.3
same,Binding of serum SARS-yellow to looped/cyclic peptide (PEPSCAN-ELISA),[1],0.4
same,Binding of Control Serum Blood-Bank to Looped peptides,[2],0.4
same,Binding of Control serum Blood-bank to linear peptides,[2],0.5
same,Binding of Control serum LUMC to linear peptides,[2],0.4
same,Binding of Control serum LUMC to looped peptides,[2],0.6
same,Binding of a rabbit serum to linear peptides,[3],0.1
same,Binding of a rabbit serum to looped peptides,[3],0.5
LLKEPCPSGTYEGNS,Binding of serum 1a to linear peptides of protein X4 of SARS-CoV Urbani,[1],0.8
same,Binding of serum 1a to looped/cyclic peptides of protein X4 of SARS-CoV Urbani,[1],0.8
same,Binding of serum 1b to linear peptides of protein X4 of SARS-CoV Urbani,[1],0.6
same,Binding of serum 1b to looped/cyclic peptides of protein X4 of SARS-CoV Urbani,[1],0.6
same,Binding of serum 2 to linear peptides of protein X4 of SARS-CoV Urbani,[1],0.3
same,Binding of serum 2 to looped/cyclic peptides of protein X4 of SARS-CoV Urbani,[1],0.6
same,Binding of serum 6 to linear peptides of protein X4 of SARS-CoV Urbani,[1],0.6
same,Binding of serum 6 to looped/cyclic peptides of protein X4 of SARS-CoV Urbani,[1],0.7
same,Binding of serum 37 to linear peptides of protein X4 of SARS-CoV Urbani,[1],0.6
same,Binding of serum 37 to looped/cyclic peptides of protein X4 of SARS-CoV Urbani,[1],0.7
same,Binding of serum 62 to linear peptides of protein X4 of SARS-CoV Urbani,[1],0.8
same,Binding of serum 62 to looped/cyclic peptides of protein X4 of SARS-CoV Urbani,[1],0.5
same,Binding of serum London to linear peptides of protein X4 of SARS-CoV Urbani,[1],0.8
same,Binding of serum London to looped/cyclic peptides of protein X4 of SARS-CoV Urbani,[1],0.3
same,Binding of serum SARS-green to linear peptides of protein X4 of SARS-CoV Urbani,[1],0.5
same,Binding of serum SARS-green to looped/cyclic peptides of protein X4 of SARS-CoV Urbani,[1],0.7
same,Binding of serum SARS-yellow to linear peptides of protein X4 of SARS-CoV Urbani,[1],0.2
same,Binding of serum SARS-yellow to looped/cyclic peptides of protein X4 of SARS-CoV Urbani,[1],0.2
same,Binding of Control Serum Blood-Bank to Looped peptides,[2],0.6
same,Binding of Control serum Blood-bank to linear peptides,[2],0.6
same,Binding of Control serum LUMC to linear peptides,[2],0.6
same,Binding of Control serum LUMC to looped peptides,[2],0.8
same,Rabbit serum linear peptides,[3],0.3
same,Rabbit serum looped peptides,[3],0.1
